How the values were obtained:
Format in all cases: functional
[1] = tested on: Saccharomyces cerevisiae; test: Antifungal activity against recombinant Saccharomyces cerevisiae Y2301 overexpressing ScErg11 Y140F mutant assessed as inhibition of fungal growth incubated for 48 hrs by CLSI based broth microdilution assay
[2] = tested on: Saccharomyces cerevisiae; test: Antifungal activity against recombinant Saccharomyces cerevisiae Y2462 overexpressing ScErg11/ScNcp1 assessed as inhibition of fungal growth incubated for 48 hrs by CLSI based broth microdilution assay
[3] = tested on: Saccharomyces cerevisiae; test: Antifungal activity against recombinant Saccharomyces cerevisiae Y2768 overexpressing CauErg11 T132F mutant assessed as inhibition of fungal growth incubated for 48 hrs by CLSI based broth microdilution assay
[4] = tested on: Saccharomyces cerevisiae; test: Antifungal activity against recombinant Saccharomyces cerevisiae Y2767 overexpressing CauErg11 assessed as inhibition of fungal growth incubated for 48 hrs by CLSI based broth microdilution assay
[5] = tested on: Saccharomyces cerevisiae; test: Antifungal activity against recombinant Saccharomyces cerevisiae Y2721 overexpressing CpErg11/CpCpr assessed as inhibition of fungal growth incubated for 48 hrs by CLSI based broth microdilution assay
[6] = tested on: Saccharomyces cerevisiae; test: Antifungal activity against recombinant Saccharomyces cerevisiae Y525 overexpressing CaMdr1 assessed as inhibition of fungal growth incubated for 48 hrs by CLSI based broth microdilution assay
[7] = tested on: Saccharomyces cerevisiae; test: Antifungal activity against recombinant Saccharomyces cerevisiae Y2513 overexpressing ScErg11 Y140H mutant assessed as inhibition of fungal growth incubated for 48 hrs by CLSI based broth microdilution assay
[8] = tested on: Saccharomyces cerevisiae; test: Antifungal activity against recombinant Saccharomyces cerevisiae Y2765 overexpressing CauMdr1 assessed as inhibition of fungal growth incubated for 48 hrs by CLSI based broth microdilution assay
[9] = tested on: Saccharomyces cerevisiae; test: Antifungal activity against recombinant Saccharomyces cerevisiae Y2300 overexpressing ScErg11 assessed as inhibition of fungal growth incubated for 48 hrs by CLSI based broth microdilution assay
[10] = tested on: Saccharomyces cerevisiae; test: Antifungal activity against recombinant Saccharomyces cerevisiae Y2374 overexpressing CgErg11 assessed as inhibition of fungal growth incubated for 48 hrs by CLSI based broth microdilution assay
[11] = tested on: Saccharomyces cerevisiae; test: Antifungal activity against recombinant Saccharomyces cerevisiae Y2716 overexpressing CpErg11 Y132F mutant/ CpCpr assessed as inhibition of fungal growth incubated for 48 hrs by CLSI based broth microdilution assay
[12] = tested on: Saccharomyces cerevisiae; test: Antifungal activity against recombinant Saccharomyces cerevisiae Y2769 overexpressing CauErg11 K143R mutant assessed as inhibition of fungal growth incubated for 48 hrs by CLSI based broth microdilution assay
[13] = tested on: Saccharomyces cerevisiae; test: Antifungal activity against recombinant Saccharomyces cerevisiae Y2766 overexpressing CauCdr1 assessed as inhibition of fungal growth incubated for 48 hrs by CLSI based broth microdilution assay
[14] = tested on: Saccharomyces cerevisiae; test: Antifungal activity against recombinant Saccharomyces cerevisiae Y2711 overexpressing CnErg11 assessed as inhibition of fungal growth incubated for 48 hrs by CLSI based broth microdilution assay
[15] = tested on: Saccharomyces cerevisiae; test: Antifungal activity against recombinant Saccharomyces cerevisiae Y570 overexpressing CaCdr1 assessed as inhibition of fungal growth incubated for 48 hrs by CLSI based broth microdilution assay
[16] = tested on: Saccharomyces cerevisiae; test: Antifungal activity against recombinant Saccharomyces cerevisiae Y2459 overexpressing CaErg11/CaCpr assessed as inhibition of fungal growth incubated for 48 hrs by CLSI based broth microdilution assay
[17] = tested on: Saccharomyces cerevisiae; test: Antifungal activity against recombinant Saccharomyces cerevisiae Y2411 overexpressing ScErg11 assessed as inhibition of fungal growth incubated for 48 hrs by CLSI based broth microdilution assay

Structure (SMILES)	MIC [1] [µg/mL]	MIC [2] [µg/mL]	MIC [3] [µg/mL]	MIC [4] [µg/mL]	MIC [5] [µg/mL]	MIC [6] [µg/mL]	MIC [7] [µg/mL]	MIC [8] [µg/mL]	MIC [9] [µg/mL]	MIC [10] [µg/mL]	MIC [11] [µg/mL]	MIC [12] [µg/mL]	MIC [13] [µg/mL]	MIC [14] [µg/mL]	MIC [15] [µg/mL]	MIC [16] [µg/mL]	MIC [17] [µg/mL]
CC[C@@H]([C@H](C)O)n1ncn(-c2ccc(N3CCN(c4ccc(OC[C@@H]5CO[C@@](Cn6cncn6)(c6ccc(F)cc6F)C5)cc4)CC3)cc2)c1=O [POSACONAZOLE]	2	0.125	1	0.063	0.25	0.125	2	0.125	1	0.125	1	1	0.125	0.0313	8	0.125	0.5
CC(=O)N1CCN(c2ccc(OCC3COC(Cn4ccnc4)(c4ccc(Cl)cc4Cl)O3)cc2)CC1 (stereo unspecified) [KETOCONAZOLE]	2	1	1	0.5	0.5	0.25	1	0.25	1	0.5	2	1	8	8	64	0.5	0.25
C[C@@H](c1ncncc1F)[C@](O)(Cn1cncn1)c1ccc(F)cc1F [VORICONAZOLE]	0.0313	0.063	0.25	0.0313	0.0313	0.5	0.0313	1	0.0313	0.0313	0.25	0.063	2	0.008	8	0.016	0.008
